Reference: patent US9233136B2, “4-amino-4-oxobutanoyl peptides as inhibitors of viral replication” (Achillion Pharmaceuticals, Inc., priority 2006, dated 2016)

System: Hepatitis C replicon in Huh-7 cells
Test: HCV replicon replication assay (NPT ELISA)
Type: cell-based
Details: Hepatitis C virus, Huh-7, 72 h
Procedure: Compounds claimed herein are tested for the ability to inhibit viral replication of the Hepatitis C replicon in cultured cells in which the HCV replicon construct has been incorporated. The HCV replicon system was described by Bartenschlager, et. al (Science, 285, pp. 110-113 (1999)). The replicon system is predictive of in vivo anti-HCV activity; compounds that are active in humans uniformly evidence activity in the replicon assay.
In this assay HCV replicon containing cells are treated with different concentrations of the test compound to ascertain the ability of the test compound to suppress replication of the HCV replicon. As a positive control, HCV replicon-containing cells are treated with different concentrations of interferon alpha, a known inhibitor of HCV replication. The replicon assay system includes Neomycin Phosphotransferase (NPT) as a component of the replicon itself in order to detect the transcription of replicon gene products in the host cell. Cells in which the HCV replicon is actively replicating have high levels of NPT; the level of NPT is proportional to HCV replication. […] The NPT level of each sample is measured using a captured ELISA.
A protocol for testing compounds for the ability to inhibit viral replication of the Hepatitis C replicon cultured cells in which the replicon construct has been incorporated, follows.
The HCV replicon contains, 5′-3′, the HCV-IRES, the neomycin phosphotransferase (neo) gene, the IRES of encephalomyocarditis virus, which directs translation of HCV sequences NS3 to NS5B, and the 3′-NTR. The sequence of the HCV replicon has been deposited in GenBank (Accession no. AJ242652).
The replicon is transfected into Huh-7 cells using standard methods such as electroporation.
The cells are then seeded onto 96-well plates at a density of 6000-7500 cells/100 microliters/well (6-7.5×10^5 cells/10 ml/plate). The plates are then incubated at 37° C. in a 5% CO2 incubator.
HCV replicon-containing cells are rinsed with once PBS once; 2 mls of trypsin are then added. Cells are incubated at 37° C. in a 5% CO2 incubator for 3-5 minutes. 10 mls of complete medium is added to stop the reaction. Cells are blown gently, put into a 15 ml tube, and spun at 1200 rpm for four minutes. The trypsin/medium solution is removed and 5 mls of medium (500 ml DMEM (high glucose)) from BRL catalog #12430-054; 50 mls 10% FBS, 5% Geneticin G418 (50 mg/ml, BRL catalog #10131-035), 5 ml MEM non-essential amino acids (100×BRL #11140-050) and 5 ml pen-strep (BRL #15140-148) is added. The cells and media are mixed carefully
Cells are plated with screening medium (500 ml DMEM (BRL #21063-029), 50 ml FBS (BRL #10082-147) and 5 ml MEM non-essential amino acid (BRL #11140-050) at 6000-7500 fcells/100 μl/well of 96 well plate (6-7.5×10^5 cells/10 ml/plate). Plates are placed into 37° C. 5% CO2 incubator overnight.
The following morning, drugs (test compounds or interferon alpha) are diluted in 96 well U bottom plates with media or DMSO/media, depending on the final concentration chosen for screening. Generally for 6 concentrations of each test compounds ranging from 10 micromolar to 0.03 micromolar are applied. 100 μl of the test compound dilution is placed in wells of the 96 well plate containing the HCV replicon cells. Media without drug is added to some wells as a negative controls. DMSO is known to affect cell growth. Therefore, if drugs diluted in DMSO are used, all wells, including negative control (media only) and positive control (interferon alpha) wells, must contain the same concentration of DMSO, for single dose screening. The plates are incubated at 37° C. in a humidified 5% CO2 environment for three days.
On day four, the NTPII assay is quantitated. The medium is poured from the plates and the plates are washed once in 200 μl of PBS. The PBS is then decanted and the plates tapped in a paper towel to remove any remaining PBS. […]

Structure (SMILES) | EC50 [µM]
C=CC1CC1(NC(=O)[C@@H]1C[C@@H](Oc2cc(-c3ccccc3)nc3cc(OC)ccc23)CN1C(=O)[C@@H](CC(=O)N1CCCC1)C(C)(C)C)C(=O)O (stereo partly drawn) [Compound 38, 1-((2S,4R)-1-((S)-2-tert-butyl-4-oxo-4-(pyrrolidin-1-yl)butanoyl)-4-(7-methoxy-2-phenylquinolin-4-yloxy)pyrrolidine-2-carboxamido)-2-vinylcyclopropanecarboxylic acid] | > 10
C=CC1CC1(NC(=O)[C@@H]1C[C@@H](Oc2cc(-c3ccccc3)nc3cc(OC)ccc23)CN1C(=O)[C@@H](CC(=O)N1CCCC1)C(C)(C)C)C(=O)OCC (stereo partly drawn) [Compound 39, ethyl 1-((2S,4R)-1-((S)-2-tert-butyl-4-oxo-4-(pyrrolidin-1-yl)butanoyl)-4-(7-methoxy-2-phenylquinolin-4-yloxy)pyrrolidine-2-carboxamido)-2-vinylcyclopropanecarboxylate] | > 10
C=CC1CC1(NC(=O)[C@@H]1C[C@@H](Oc2cc(-c3ccccc3)nc3cc(OC)ccc23)CN1C(=O)[C@@H](CC(=O)N1CCCCC1)C(C)(C)C)C(=O)OCC (stereo partly drawn) [Compound 40, ethyl 1-((2S,4R)-1-((S)-2-tert-butyl-4-oxo-4-(piperidin-1-yl)butanoyl)-4-(7-methoxy-2-phenylquinolin-4-yloxy)pyrrolidine-2-carboxamido)-2-vinylcyclopropanecarboxylate] | > 10
C=CC1CC1(NC(=O)[C@@H]1C[C@@H](Oc2cc(-c3ccccc3)nc3cc(OC)ccc23)CN1C(=O)[C@@H](CC(=O)N1CCCCC1)C(C)(C)C)C(=O)O (stereo partly drawn) [Compound 41, 1-((2S,4R)-1-((S)-2-tert-butyl-4-oxo-4-(piperidin-1-yl)butanoyl)-4-(7-methoxy-2-phenylquinolin-4-yloxy)pyrrolidine-2-carboxamido)-2-vinylcyclopropanecarboxylic acid] | 1 to 10
C=CC1CC1(NC(=O)[C@@H]1C[C@@H](Oc2cc(-c3ccccc3)nc3cc(OC)ccc23)CN1C(=O)[C@@H](CC(=O)N1CCC(O)C1)C(C)(C)C)C(=O)O (stereo partly drawn) [Compound 42, 1-((2S,4R)-1-((2S)-2-tert-butyl-4-(3-hydroxypyrrolidin-1-yl)-4-oxobutanoyl)-4-(7-methoxy-2-phenylquinolin-4-yloxy)pyrrolidine-2-carboxamido)-2-vinylcyclopropanecarboxylic acid] | > 10
C=CC1CC1(NC(=O)[C@@H]1C[C@@H](Oc2cc(-c3ccccc3)nc3cc(OC)ccc23)CN1C(=O)[C@@H](CC(=O)N1CCN(C)CC1)C(C)(C)C)C(=O)O (stereo partly drawn) [Compound 43, 1-((2S,4R)-1-((S)-2-tert-butyl-4-(4-methylpiperazin-1-yl)-4-oxobutanoyl)-4-(7-methoxy-2-phenylquinolin-4-yloxy)pyrrolidine-2-carboxamido)-2-vinylcyclopropanecarboxylic acid] | > 10
C=CC1CC1(NC(=O)[C@@H]1C[C@@H](Oc2cc(-c3ccccc3)nc3cc(OC)ccc23)CN1C(=O)[C@@H](CC(=O)N1CCCCC1C(N)=O)C(C)(C)C)C(=O)O (stereo partly drawn) [Compound 44, 1-((2S,4R)-1-((2S)-2-tert-butyl-4-(2-carbamoylpiperidin-1-yl)-4-oxobutanoyl)-4-(7-methoxy-2-phenylquinolin-4-yloxy)pyrrolidine-2-carboxamido)-2-vinylcyclopropanecarboxylic acid] | > 10
C=CC1CC1(NC(=O)[C@@H]1C[C@@H](Oc2cc(-c3ccccc3)nc3cc(OC)ccc23)CN1C(=O)[C@@H](CC(=O)N1CCCCC1C(N)=O)C(C)(C)C)C(=O)OCC (stereo partly drawn) [Compound 45, ethyl 1-((2S,4R)-1-((2S)-2-tert-butyl-4-(2-carbamoylpiperidin-1-yl)-4-oxobutanoyl)-4-(7-methoxy-2-phenylquinolin-4-yloxy)pyrrolidine-2-carboxamido)-2-vinylcyclopropanecarboxylate] | 1 to 10
